Measurements from US7932266B2, “Isoquinoline derivatives as calpain inhibitors” (Consejo Superior de Investigaciones Cientificas, priority 2004, dated 2011).

Experiments:
calpain = assay: Calpain inhibition, first results on earlier isoquinoline derivatives; format: biochemical; conditions: simple derivative of isoquinoline without peptide chain; applicant's first results
[1] = target: T1, calpain I from porcine erythrocyte (Sus scrofa, UniProt P35750); assay: Enzyme activity test: inhibition of calpain (fluorimetric, BODIPY-FL casein substrate); format: biochemical; conditions: 7 inhibitor concentrations between 10 nM and 200 μM
T1 construct: calpain I from porcine erythrocyte (Calbiochem, Cat No 208712) was used as enzyme; purchased Calbiochem 208712; host or cells: porcine erythrocyte (natural source)
T1 sequence (P35750 1-714): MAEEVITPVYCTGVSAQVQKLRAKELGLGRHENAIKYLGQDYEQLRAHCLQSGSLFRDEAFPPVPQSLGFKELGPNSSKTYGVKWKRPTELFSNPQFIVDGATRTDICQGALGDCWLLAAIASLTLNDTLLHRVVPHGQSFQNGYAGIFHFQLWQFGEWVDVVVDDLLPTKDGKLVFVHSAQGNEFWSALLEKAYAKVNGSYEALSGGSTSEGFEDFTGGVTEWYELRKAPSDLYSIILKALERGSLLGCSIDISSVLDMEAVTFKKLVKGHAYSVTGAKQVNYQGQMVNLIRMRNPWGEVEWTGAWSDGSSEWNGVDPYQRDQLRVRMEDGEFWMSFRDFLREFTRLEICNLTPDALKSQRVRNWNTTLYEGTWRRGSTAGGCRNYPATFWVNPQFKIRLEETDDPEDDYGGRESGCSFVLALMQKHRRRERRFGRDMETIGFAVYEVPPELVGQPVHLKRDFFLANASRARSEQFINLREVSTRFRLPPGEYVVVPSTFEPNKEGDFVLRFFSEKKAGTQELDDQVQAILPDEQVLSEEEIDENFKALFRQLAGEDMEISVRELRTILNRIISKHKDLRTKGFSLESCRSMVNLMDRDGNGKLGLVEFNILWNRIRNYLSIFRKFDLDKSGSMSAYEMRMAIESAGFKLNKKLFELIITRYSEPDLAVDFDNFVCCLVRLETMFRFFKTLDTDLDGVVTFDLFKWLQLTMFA
T1 sequence (P04574 1-266 partner): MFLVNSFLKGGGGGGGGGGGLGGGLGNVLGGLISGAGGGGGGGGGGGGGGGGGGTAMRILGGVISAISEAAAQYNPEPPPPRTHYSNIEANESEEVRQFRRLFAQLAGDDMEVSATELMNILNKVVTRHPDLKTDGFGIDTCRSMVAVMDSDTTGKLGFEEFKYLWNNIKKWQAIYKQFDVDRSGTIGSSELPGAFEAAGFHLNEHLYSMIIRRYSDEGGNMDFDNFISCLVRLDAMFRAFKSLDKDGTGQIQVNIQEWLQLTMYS
From the text: The capacity to inhibit calpain has been quantified in terms of the value of IC50, which is defined as the concentration of inhibitor that reduces the catalytic activity of an enzyme by half. The lower the value of IC50, the more powerful the inhibitor. Inhibition results on calpain I (the most relevant from a physiological point of view) of some compounds of the present invention are shown in table 1 and in FIG. 1. Given that calpain II, also known as milli-calpain, needs a greater amount of Ca^2+ for activation, it might not possibly have such a relevant physiological role since such a concentration of Ca^2+ would cause cell death before the milli-calpain could become activated. For this reason, the inhibition tests have been performed for calpain I, though they can be extrapolated for calpain II.
The calpain inhibition capacity has been quantified in terms of the value of IC50, which is defined as the concentration of inhibitor that reduces the catalytic activity of an enzyme by half. The lower the value of IC50, the more powerful the inhibitor. Inhibition results on calpain I (the most relevant from a physiological point of view) of some compounds of the present invention are shown in table 1 and in FIG. 1.
The experiments were conducted spectrofluorimetrically using a Spectrofluor Tecan Corp 93382 spectrofluorimeter, exciting at […] and measuring at […]. Casein marked with BODIPY-FL® (Molecular Probes) was used as substrate and calpain I from porcine erythrocyte (Calbiochem, Cat No 208712) was used as enzyme. The freeze-dried substrate is component A of the protease assay kit EnzChek® green fluorescence from Molecular Probes (reference # E-6638); component B, known as 20× digestion buffer, contains 13 mL of 200 mM Tris-HCl, pH 7.8 and 2 mM sodium azide. The commercial calpain I that was used has a concentration of 1 mg in 1 mL of aqueous solution (the solution is 20 mM imidazol-HCl, pH 6.8, 1 mM EDTA, 1 mM EGTA, 5 mM β-mercaptoethanol, containing 30% glycerine).
2.5 mL of 20× digestion buffer (component B of the kit from Molecular Probes) was diluted with water to a total volume of 50 mL.
200 μg of freeze-dried substrate (component A of the kit from Molecular Probes) was dissolved in 200 μL of phosphate saline buffer. This solution was decanted into a graduated flask and diluted with the digestion solution to a total volume of 40 mL.
20 μL of commercial solution of calpain was diluted with the digestion solution to a total volume of 200 μL.
The inhibitor was dissolved in DMSO. Each inhibitor was assayed at 7 different concentrations between 10 nM and 200 μM.
All the data were obtained measuring the variation in fluorescence with time. The use of a multi-cell device and Eppendorf multi-channel pipettes permitted measurement of the variation in fluorescence in up to 64 experiments. In this way, the control experiment and the experiments with the different concentrations of inhibitor was carried out in the same set of measurements. All the experiments were conducted twice.
The control experiment was carried out mixing 180 μL of casein solution and 5 μL of calpain solution. The reaction was initiated by the addition of 10 μL of a 50 μM solution of CaCl2 in water, and the fluorescence was measured from the moment of the addition of Ca^2+ (time=0) and for 250-300 seconds (measuring during 20 kinetic cycles). The variation in fluorescence (ΔF) was represented against time (t). In order to test the effect of DMSO on enzyme activity, additional control experiments were conducted adding DMSO (in the quantities used in the experiments with the inhibitors), with the same result being obtained as in the control experiment.
180 μL of casein solution, 5 μL of calpain solution and 5 μL of inhibitor solution (of variable concentration) were mixed together. […]

Row | SMILES | melting point | IC50 [1] | activity as calpain inhibitor (calpain)
1 | COC(=O)/C=C1/c2ccccc2C(=O)N[C@H]1C(C)C [Compound 3] | – | – | not calpain inhibitors
2 | CC[C@H](C)[C@@H]1NC(=O)c2ccccc2/C1=C/C(=O)Nc1ccccc1-c1ccccc1NC(=O)[C@@H](N)C(C)C [Compound 22, (S,S,S,Z)-2-amino-N-{2′-[2-(3-sec-butyl-1-oxo-2,3-dihydro-1H-isoquinolin-4-yliden)-acetylamino]-biphenyl-2-yl}-3-methyl-butyramide] | 110 to 113 °C | 17 µM | –
3 | CC[C@H](C)[C@H](NC(=O)/C=C1/c2ccccc2C(=O)N[C@H]1[C@@H](C)CC)C(=O)N[C@H](C(=O)N[C@H](C(=O)OC)[C@@H](C)CC)[C@@H](C)CC [Compound 26, methyl (S,S,S,S,S,S,S,S,S,Z)-2-(2-{2-[2-(3-sec-butyl-1-oxo-2,3-dihydro-1H-isoquinolin-4-yliden)-acetylamino]-3-methyl-pentanoylamino}-3-methyl-pentanoylamino)-3-methyl-pentanoate] | 151 to 154 °C | 0.159 µM | –

Now from value to compound, other results behind:

Row | melting point | IC50 [1] | SMILES | activity as calpain inhibitor (calpain)
4 | 174 to 176 °C | 0.626 µM | CC[C@H](C)[C@@H]1NC(=O)c2ccccc2/C1=C/C(=O)N[C@H](C(=O)N[C@@H](Cc1ccccc1)C(=O)OC)C(C)C [Compound 27, methyl (S,S,S,S,Z)-2-{2-[2-(3-sec-butyl-1-oxo-2,3-dihydro-1H-isoquinolin-4-yliden)-acetylamino]-3-methyl-butirylamino}-3-phenyl-propionate] | –
5 | 50 to 53 °C | 38 µM | CC[C@H](C)[C@@H]1NC(=S)c2ccccc2/C1=C/C(=O)OC [Compound 28, methyl (S,S,Z)-(3-sec-butyl-1-thioxo-2,3-dihydro-1H-isoquinolin-4-yliden)-acetate] | –
